Assay results from patent publication US20100130737A1, “Regulating Agent of GPR34 Receptor Function” (TAKEDA PHARMACEUTICAL COMPANY LIMITED, priority 2005, published 2010).

First: O=C(N[C@@H](Cc1ccc(OCc2ccoc2)cc1)C(=O)O)c1cn2nc(-c3ccc(Cl)cc3)ccc2n1 [Example E32, N-{[6-(4-Chlorophenyl)imidazo[1,2-b]pyridazin-2-yl]carbonyl}-O-(3-furylmethyl)tyrosine]
Second: O=C(N[C@@H](Cc1ccc(OCc2ccoc2)cc1)C(=O)O)c1cn2ccc(-c3ccc(Cl)cc3)cc2n1 [Example E33, N-{[7-(4-Chlorophenyl)imidazo[1,2-a]pyridin-2-yl]carbonyl}-O-(3-furylmethyl)tyrosine]
The melting point of the first is lower: 220 °C for the first, 243 °C for the second.

O=C(N[C@@H](Cc1ccc(OCc2ccccc2)cc1)C(=O)O)c1cn2cc(/C=C/c3ccccc3)ccc2n1 [Example E34, O-Benzyl-N-({6-[(E)-2-phenylethenyl]imidazo[1,2-a]pyridin-2-yl}carbonyl)tyrosine] and COc1ccc(/C=C/c2ccc3nc(C(=O)N[C@@H](Cc4ccc(OCc5ccccc5)cc4)C(=O)O)cn3c2)cc1 [Example E43, O-Benzyl-N-({6-[(E)-2-(4-methoxyphenyl)ethenyl]imidazo[1,2-a]pyridin-2-yl}carbonyl)tyrosine] fall in the same range of melting point: 262 to 263 °C for the first, 262 to 263 °C for the second.

Cc1cc2nc(C(=O)N[C@@H](Cc3ccc(OCc4ccccc4)cc3)C(=O)O)cn2cc1-c1ccc(Cl)cc1 [Example E35, O-Benzyl-N-{[6-(4-chlorophenyl)-7-methylimidazo[1,2-a]pyridin-2-yl]carbonyl}tyrosine] and O=C(N[C@@H](Cc1ccc(OCc2ccccc2)cc1)C(=O)O)c1cn2ccc(-c3ccc(Cl)cc3)cc2n1 [Example E56, O-Benzyl-N-{[7-(4-chlorophenyl)imidazo[1,2-a]pyridin-2-yl]carbonyl}-L-tyrosine] fall in the same range of melting point: 248 to 249 °C for the first, 248 to 249 °C for the second.

First: Cc1cc2nc(C(=O)NC(Cc3ccc(OCc4ccccc4)cc3)C(=O)O)cn2c(C)c1-c1ccc(Cl)cc1 (centres unmarked) [Example E36]
Second: Cc1c(-c2ccc(Cl)cc2)nc2ccc(C(=O)N[C@@H](Cc3ccc(OCc4ccccc4)cc3)C(=O)O)cn12 [Example E55, O-Benzyl-N-{[2-(4-chlorophenyl)-3-methylimidazo[1,2-a]pyridin-6-yl]carbonyl}tyrosine]
The melting point of the first is higher: 250 to 251 °C for the first, 244 to 245 °C for the second.

First: O=C(O)CN(Cc1ccc(OCc2ccccc2)cc1)C(=O)c1cn2cc(-c3ccc(Cl)cc3)ccc2n1 [Example E39, N-[4-(Benzyloxy)benzyl]-N-{[6-(4-chlorophenyl)imidazo[1,2-a]pyridin-2-yl]carbonyl}glycine]
Second: O=C(O)CN(Cc1ccc(OCc2ccccc2)cc1)C(=O)c1cn2ccc(-c3ccc(Cl)cc3)cc2n1 [Example E52, N-[4-(Benzyloxy)benzyl]-N-{[7-(4-chlorophenyl)imidazo[1,2-a]pyridin-2-yl]carbonyl}glycine]
The melting point of the first is higher: 213 to 214 °C for the first, 186 °C for the second.

Compared with O=C(N[C@@H](Cc1ccc(OCc2ccccc2)cc1)C(=O)O)c1cn2cc(-c3ccc(Cl)cc3Cl)ccc2n1 [Example E40, O-Benzyl-N-{[6-(2,4-dichlorophenyl)imidazo[1,2-a]pyridin-2-yl]carbonyl}tyrosine], COc1cc(F)c(-c2ccc3nc(C(=O)N[C@@H](Cc4ccc(OCc5ccccc5)cc4)C(=O)O)cn3c2)c(F)c1 [Example E46, O-Benzyl-N-{[6-(2,6-difluoro-4-methoxyphenyl)imidazo[1,2-a]pyridin-2-yl]carbonyl}tyrosine] is lower in melting point: 237 to 239 °C for the first, 219 °C for the second.

Compared with O=C(NC(Cc1ccc(OCc2ccccc2)cc1)C(=O)O)c1cn2cc(-c3ccc(OC(F)(F)F)cc3)ccc2n1 (centres unmarked) [Example E44], O=C(N[C@@H](Cc1ccc(OCc2ccc(C(F)(F)F)cc2)cc1)C(=O)O)c1cn2ccc(-c3ccc(Cl)cc3)cc2n1 [Example E66, N-{[7-(4-Chlorophenyl)imidazo[1,2-a]pyridin-2-yl]carbonyl}-O-[4-(trifluoromethyl)benzyl]tyrosine] is lower in melting point: 270 to 271 °C for the first, 263 °C for the second.

First: O=C(N[C@@H](Cc1ccc(OCc2ccccc2)cc1)C(=O)O)c1ccc2nc(-c3ccc(Cl)cc3)c(Cl)n2c1 [Example E50, O-Benzyl-N-{[3-chloro-2-(4-chlorophenyl)imidazo[1,2-a]pyridin-6-yl]carbonyl}tyrosine]
Second: Cc1cccc(COc2ccc(C[C@H](NC(=O)c3cn4ccc(-c5ccc(Cl)cc5)cc4n3)C(=O)O)cc2)c1 [Example E60, N-{[7-(4-Chlorophenyl)imidazo[1,2-a]pyridin-2-yl]carbonyl}-O-(3-methylbenzyl)tyrosine]
The melting point of the first is lower: 241 to 243 °C for the first, 245 to 246 °C for the second.

Compared with O=C(O)CN(Cc1ccc(OCc2ccsc2)cc1)C(=O)c1cn2ccc(-c3ccc(Cl)cc3)cc2n1 [Example E53], COc1cccc(COc2ccc(C[C@H](NC(=O)c3cn4ccc(-c5ccc(Cl)cc5)cc4n3)C(=O)O)cc2)c1 [Example E61, N-{[7-(4-Chlorophenyl)imidazo[1,2-a]pyridin-2-yl]carbonyl)-O-(3-methoxybenzyl)tyrosine] is higher in melting point: 187 °C for the first, 239 to 240 °C for the second.

With O=C(N[C@@H](Cc1ccc(OCc2ccccc2)cc1)C(=O)O)c1cn2ccc(C#Cc3ccccc3)cc2n1 [Example E58, O-Benzyl-N-{[7-(phenylethynyl)imidazo[1,2-a]pyridin-2-yl]carbonyl}tyrosine] the melting point was 243 °C (dec.).
With O=C(NC(Cc1ccc(OCc2ccc(F)cc2)cc1)C(=O)O)c1cn2ccc(C#Cc3ccccc3)cc2n1 (centres unmarked) [Example E62] the melting point was 243 °C (dec.).
